Test results reported in ChEMBL document CHEMBL4118186 (Bioorg Med Chem Lett, 2018).
pIC50: −log10 of the molar value.

Test system: not listed separately
Assay: Metabolic stability in BALB/c mouse liver microsomes at 1 uM preincubated for 5 mins followed by NADP+ addition measured up to 40 mins by LC/MS method
Type: ADME, microsome

Stability | Compound
Stable | CC(C)C[C@H](NC(=O)[C@H](Cc1ccccc1)NCc1ccccc1)B(O)O

Test system: not listed separately
Assay: Metabolic stability in human liver microsomes at 1 uM preincubated for 5 mins followed by NADP+ addition measured up to 40 mins by LC/MS method
Type: ADME, microsome

Stability | Compound
Stable | CC(C)C[C@H](NC(=O)[C@H](Cc1ccccc1)NCc1ccccc1)B(O)O

Target: T1, Proteasome Macropain subunit MB1 (Homo sapiens, UniProt P28074)
T1 sequence (P28074 whole entry): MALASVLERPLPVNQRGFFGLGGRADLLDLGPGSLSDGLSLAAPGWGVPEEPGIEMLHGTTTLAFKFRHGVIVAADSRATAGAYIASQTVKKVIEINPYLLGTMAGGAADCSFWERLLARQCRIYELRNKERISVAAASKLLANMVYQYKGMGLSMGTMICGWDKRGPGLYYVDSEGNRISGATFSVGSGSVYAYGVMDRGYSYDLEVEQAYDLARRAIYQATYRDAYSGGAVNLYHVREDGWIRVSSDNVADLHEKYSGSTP
Assay: Inhibition of chymotrypsin-like activity of human 20S proteasome using Suc-Leu-Leu-Val-Tyr-AMC as substrate after 1 hr by fluorescence analysis

Compound | pIC50
CC(C)C[C@H](NC(=O)[C@H](Cc1ccccc1)OCc1ccccc1)B(O)O | 7.44
CC(C)C[C@H](NC(=O)[C@H](Cc1ccccc1)NCc1cnccn1)B(O)O | 7.19
CC(C)C[C@H](NC(=O)[C@H](Cc1ccccc1)Oc1cccc2ccccc12)B(O)O | 6.56
CC(C)C[C@H](NC(=O)[C@H](Cc1ccccc1)OCc1cnccn1)B(O)O | 7.28
CC(C)C[C@H](NC(=O)[C@H](Cc1ccccc1)Oc1ccccc1)B(O)O | 6.90
CC(C)C[C@H](NC(=O)[C@H](Cc1ccccc1)Nc1cnccn1)B(O)O | 6.72
CC(C)C[C@H](NC(=O)[C@H](Cc1ccccc1)Nc1cccc2ccccc12)B(O)O | 6.78

Further compounds by rising pIC50, results first:

pIC50 | Compound
6.47 | CC(C)C[C@H](NC(=O)[C@H](Cc1ccccc1)Nc1ccccc1)B(O)O
6.81 | CC(C)C[C@H](NC(=O)[C@H](Cc1ccccc1)Oc1cnccn1)B(O)O
6.96 | CC(C)C[C@H](NC(=O)[C@H](Cc1ccccc1)OCc1cccc2ccccc12)B(O)O
7.04 | CC(C)C[C@H](NC(=O)[C@H](Cc1ccccc1)NCc1cccc2ccccc12)B(O)O
8.01 | CC(C)C[C@H](NC(=O)[C@H](Cc1ccccc1)NCc1ccccc1)B(O)O
